Experimental data reported in US12296018B2, “Albumin binding peptide-drug (AlBiPeD) conjugates and methods of making and using same” (priority 2018, dated 2025).
Several values for one entry are separate records, joined by “and”; a condition that tells them apart may be missing. Identical values can stand only once.

Columns and labels:
[1] = tested on: MIA PaCa-2 pancreatic tumor xenografts; assay: In vivo tumor regression, MIA PaCa-2 xenograft model; design: species or system nude BALB/c mice
Method: (§1) In vivo tumor regression For in vivo tumor implantation, C26 cells at 5×10^5 cells in 30 μL Minimum Essential Medium (MEM) (Invitrogen, Carlsbad, CA) and MIA PaCa-2 cells at 2×10^6 cells in 50 μL 10:90 v/v MEM: Matrigel matrix (Corning Inc, Corning, New York) were inoculated in the right flank of normal and athymic nude BALB/c mice, respectively. Tumor cells were allowed to grow until the tumor volume, calculated as π/6×length×width^2, reached 75-100 mm^3 for C26 tumors and 100-125 mm^3 for MIA PaCa-2 tumors. Tumor bearing mice were then treated with ABD-Dox at 10 and 20 mg Dox Equiv.kg^−1 BW, AlDox at 20 mg Dox Equiv.kg^−1 BW, and free Dox at 10 mgkg^−1 BW. Tumor volumes and body weights were monitored for 100 days after treatment and mice displaying excessive tumor volume (>[…]), body weight loss (>15%), or ill health were euthanized. Tumor growth and survival data were analyzed by GraphPad Prism software. Survival curves were generated with the Kaplan-Meier method and compared with the log-rank (Mantel-Cox) test. Tumor growth data were compared with a paired one-way ANOVA followed by Tukey-Kramer (Tukey's) post-hoc test. P<0.05 was considered as statistically significant.
(§2) For in vivo tumor regression studies, a single dose of ABD-Dox was injected via tail vein at 10 mg Dox Equiv.kg^−1 BW (MTD of free Dox) and 20 mg Dox Equiv.kg^−1 BW (MTD of ABD-Dox) in separate cohorts of BALB/c mice with s.c. C26 tumors or nude mice with s.c. MIA Paca-2 tumors. Free Dox was injected at its MTD of 10 mgkg-1 BW, and AlDox was injected at 20 mg Dox Equiv.kg^−1 BW, a dose that was reported to be safe in previous studies. All animals were injected when the tumors were 75-100 mm; in size for C26 tumors and 100-125 mm^3 for MIA PaCa-2 tumors.

Aqueous solubility = assay type: physicochemical
Method: To remove the ELP160 tag, the KEKE-ELP160-srt-ABD-Dox conjugate was buffer exchanged into sortase reaction buffer, and was reacted with (His)6-sortase A-ELP40 in the presence of a 50 fold molar excess of triglycine (FIG. 2A). The efficiency of the sortase reaction, defined as the percent conversion of ELP-ABD-Dox substrate to ABD-Dox, was determined by size exclusion HPLC and was calculated to be ≥85% (FIG. 3A). The ABD-Dox product was then separated from (His)6-sortase A-ELP40, the cleaved KEKE-ELP160 tag, and unreacted KEKE-ELP160-srt-ABD-Dox in the sortase reaction solution by preparative size exclusion chromatography (SEC). The number of Dox molecules conjugated per ABD (Dox/ABD molar ratio) was measured before the sortase reaction by dissolving the lyophilized KEKE-ELP160-srt-ABD-Dox conjugate in PBS and calculating the moles of KEKE-ELP160-srt-ABD-Dox and Dox gravimetrically and spectrophotometrically at 488 nm, respectively. 3-4 Dox molecules were attached to each KEKE-ELP160-srt-ABD-(CGG)8. However, following removing the ELP160 tag, the resulting ABD-Dox conjugate was too hydrophobic and insoluble in pH 7.4 PBS because of the high number of conjugated Dox molecules. […] Formulation of AlDox in acidic pH, however, is undesirable as it can trigger the premature, in vitro degradation of the hydrazone bond between Dox and EMCH, converting AlDox back to free Dox.

[2] = tested on: C26 colon carcinoma tumors; assay: In vivo tumor regression, syngeneic C26 model; design: species or system BALB/c mice; conditions: 20 mg Dox Equiv.kg^−1 BW
Method: as §1, §2

MIA PaCa-2 cells = assay: In vitro cytotoxicity (MTS, 72 h) MIA PaCa-2; assay type: cell-based, human; conditions: 72 h incubation, Dox Equiv. concentration
Method: (§3) In vitro cytotoxicity C26 murine colon carcinoma cells and three different pancreatic cancer cell lines, BxPC-3, AsPC-1, and MIA PaCa-2, were used to study the in vitro cytotoxicity of ABD-DOX and Dox. Cells were cultured and grown as monolayers at 37° C. with C02 in a humidified incubator and were passaged at ˜80% confluency using 0.05% trypsin-EDTA (Invitrogen, Carlsbad, CA). C26, BxPC-3, AsPC-1, and MIA PaCa-2 cells were seeded in 96-well plates (5,000 cells/well) and incubated overnight. Three-fold serial dilutions of drug were then added to the wells in triplicate and also to control wells (media with no cells) to correct for the background Dox absorbance. After 72 h treatment, 20 μL MTS reagent was added to each well and was incubated for 3 h at 37° C., and the absorbance at 490 nm was measured using a Victor3 plate reader (Perkin Elmer, Boston, MA). Cell viability (%) was defined as the percentage of the absorbance of the drug-treated cells relative to buffer-treated cells and IC50 values were determined using logistic non-linear regression analysis with GraphPad Prism software. The IC50 was defined as the Dox Equiv. concentration of formulations resulting in 50% growth inhibition compared with a negative control, buffer-treated cells.

[3] = Dose-escalation study, maximum tolerated dose; assay type: in vivo, BALB/c mice; conditions: i.v., healthy BALB/c mice, two weeks; no mortality or body weight loss greater than 15%
Method: With these encouraging biodistribution results in hand, tumor regression in vivo by ABD-Dox was investigated. The maximum tolerated dose (MTD) of ABD-Dox was established in healthy mice. A range of doses of ABD-Dox were injected into healthy BALB/c mice, and body weight loss and mortality of the mice were monitored over a two-week period to assess systemic toxicity. […] Using these criteria, the MTD was determined to be 20 mg Dox Equiv.kg^−1 for ABD-Dox (FIG. 7) and 10 mgkg^−1 BW MTD of free Dox (FIG. 8).

[4] = Intravenous pharmacokinetics in healthy BALB/c mice
Method: Pharmacokinetics and biodistribution Pharmacokinetics and biodistribution experiments were performed to study the concentration of ABD-Dox in blood and tissues over time following intravenous (i.v.) administration. For the pharmacokinetic study, ABD-Dox and Dox in PBS and AlDox in 10 mM sodium phosphate, 5% D-(+)-glucose, pH 5.8 were injected at 5 mg Dox Equiv. per kg of body weight (BW) into healthy BALB/c mice. 10 μL blood samples were collected at 40 s, 15 min and 30 min, and 2, 4, 8, 24, 48, 72 and 96 h post injection and were diluted into heparinized PBS (1 kUmL^−1), and centrifuged at 4,000 rcf, 10 min, 4° C. to collect the plasma. 10 μL of the plasma samples were then diluted in 490 μL of acidified isopropanol (0.075 M HCl, 10% water) and incubated overnight at 4° C. For the biodistribution study, ABD-Dox and Dox in PBS were injected at 5 mg Dox Equiv.kg^−1 BW into C26 tumor-bearing BALB/c mice. At 2 h, 24 h, and 72 h post-injection, mice were sacrificed and tumor, heart, lung, liver, spleen, kidney and muscle tissues were dissected, weighed, homogenized in acidified isopropanol using a Mini-Beadbeater (Biospec, Bartlesville, OK) with 2 mm diameter zirconia beads for 1-2 min, and were incubated overnight at 4° C. Following overnight incubation in acidified isopropanol, plasma and tissue samples were centrifuged at 16,000 rcf, 4° C. for 10 min and the supernatants were loaded onto black 96-well plates in duplicate and the Dox fluorescence was measured using on a Victor3 microplate reader (Perkin Elmer, Waltham, MA) with fluorescence excitation at 485 nm and emission at 590 nm. Tissues were also dissected from three untreated mice, processed in the same manner, serially diluted, and loaded on the plates to prepare a standard curve of fluorescence intensity versus the weight for each tissue from which the background tissue fluorescence was calculated and subtracted for each sample. Serial dilution of free Dox in acidified isopropanol was used as standard to quantify the Dox concentration as […] per liter of plasma (μM) and as the percent of the injected dose per gram (% ID g^−1) in the tumor and other tissues. Plasma concentrations of Dox Equiv. of ABD-Dox versus time were fit to a two-compartment model using SAAM II software (SAAM Institute, Seattle, WA) and the elimination half-life and the area-under-curve were computed. The tissue concentration of Dox. Equiv. of ABD-Dox and free Dox at each time point were compared in GraphPad Prism software (GraphPad, San Diego, CA) by Student's t-test with P<0.05 considered statistically significant.

[5] = tested on: BxPC-3 pancreatic cancer cells; assay: In vitro cytotoxicity (MTS, 72 h) BxPC-3; assay type: cell-based, human; conditions: 72 h incubation, Dox Equiv. concentration
Method: as §3

[6] = tested on: AsPC-1 pancreatic cancer cells; assay: In vitro cytotoxicity (MTS, 72 h) AsPC-1; assay type: cell-based, human; conditions: 72 h incubation, Dox Equiv. concentration
Method: as §3

[7] = Tissue biodistribution in C26 tumor-bearing BALB/c mice; assay type: in vivo
Source text: The tissue concentration of Dox.

[8] = tested on: C26 murine colon carcinoma cells; assay: In vitro cytotoxicity (MTS, 72 h) C26; assay type: cell-based; conditions: 72 h incubation, Dox Equiv. concentration
Method: as §3

| SMILES | mice showing tumor disappearance ([1]; by day 15 after treatment, 20 mg Dox Equiv.kg^−1 BW) [%] | tumor recurrence in tumor-eradicated mice ([1]; by day 50, 20 mg Dox Equiv.kg^−1 BW) | concentration at which acidic pH is required for solubility in aqueous solutions (Aqueous solubility) [mg Dox Equiv.mL^−1] | solubility (Aqueous solubility; physiological pH) | eradication of C26 tumors [2] | mice that did not survive over the 100-day course of study [2] [%] | recurrence of the primary tumor [2] | IC50 (MIA PaCa-2 cells) [nM] | maximum tolerated dose (MTD) [3] [mgkg^−1 BW] | concentration in blood relative to initial concentration ([4]; 15 min after i.v. injection) | in vivo elimination half-life ([4]; i.v., 5 mg Dox Equiv. per kg BW) | IC50 [5] [nM] | IC50 [6] [nM] | concentration of Dox equivalent in tumor ([7]; 2 h after administration) [% ID.g^−1] | minimum tumor accumulation ([7]; over 72 h) [% ID.g^−1] | IC50 [8] |
| --- | --- | --- | --- | --- | --- | --- | --- | --- | --- | --- | --- | --- | --- | --- | --- | --- |
| COc1cccc2c1C(=O)c1c(O)c3c(c(O)c1C2=O)C[C@@](O)(/C(CO)=N/NC(=O)CCCCCN1C(=O)C=CC1=O)C[C@@H]3O[C@H]1C[C@H](N)[C@H](O)[C@H](C)O1 [AlDox, Aldoxorubicin, reference compound] | 50 | all | ≥ 0.5 | poor solubility | incomplete eradication | 25 | without recurrence of the primary tumor in any mice | – | – | – | – | – | – | – | – | – |
| COc1cccc2c1C(=O)c1c(O)c3c(c(O)c1C2=O)C[C@@](O)(C(=O)CO)C[C@@H]3O[C@H]1C[C@H](N)[C@H](O)[C@H](C)O1 [free Dox, Doxorubicin, reference compound] | – | – | – | – | – | – | – | 40 | 10 | less than 2% | on the order of minutes | 400 | 2500 | 1.6 | 0.07 | 500 nM and 510 nM |
